Marks after values point to notes of the source that are not given here.
How the values were obtained:
[1] = cited from earlier work
[2] = tested on: mouse; experiment: liver damage (plasma alanine aminotransferase, microscopic examination for hepatic necrosis); type: in vivo
Procedure: (§1) At very high doses, some inhibition of cytochrome P450 sub-types C8/9, 2C18/19 and 2D6 was found, but the concentrations required to inhibit enzyme activities (100 μM) were much greater than the maximum concentrations likely to be found in vivo and are therefore not likely to be clinically relevant.

[3] = tested on: attention-deficit hyperactivity disorder (ADHD); details: Patrick et al 1987; cited from earlier work
[4] = after intravenous dosing; Ding et al 1997; cited from earlier work
[5] = tested on: rat; experiment: barbital interaction (sleep induction) test; type: in vivo; details: for NUMBER OF RATS SLEEPING: 10 rats per group; for SLEEP DURATION mean ± s.e.m.: maximum 6 hours after barbital injection
Text: (§2) The following Tables report the results of the Irwin, PTZ and barbital interaction (sleep induction) tests. Description of these tests may be found in Psychopharmacologica, 13:222-257 (1968), Krall et al, Epilepsia 19:409-428 (1978), and Simon et al, J. Pharmacol, Paris 13:241-252 (1982). See also Roux et al, Phoenix international Pharmacology Reports Nos. D30.2061/2 and D99.021/2.
In Table 3, the following apply: Student's t Test: NS=Not Significant; *=p<0.05; **=p<0.01; ***=<0.001 Fisher's Exact Test: (number of rats sleeping) No indication=Not Significant; +=p<0.05; ++=p<0.01; +++=p<0.001 • (#): maximum=6 hours after barbital injection (taken 50 minutes after barbital injection).

[6] = tested on: rat; experiment: Irwin Observation Test in the rat, subcutaneous route; type: in vivo; parameters: key to Mydriasis / Hyperthermia / Excitation: +=slight; ++=moderate
Text: as §2
In Table 1, the following apply: +=slight; ++=moderate
(X/N) indicates the number of rats showing the symptoms.
Observations were performed at 15, 30, 60, 120, 180 minutes and 24 hours after administration.
Hyperthermia and mydriasis were evaluated by comparison of the mean scores obtained in treated and control animals.

[7] = molecular target: T1, cytochrome P450 sub-type 1A2 (Homo sapiens, UniProt P05177); experiment: effect on cytochrome P450 activity; type: in vitro ADME
T1 sequence (P05177 1-516): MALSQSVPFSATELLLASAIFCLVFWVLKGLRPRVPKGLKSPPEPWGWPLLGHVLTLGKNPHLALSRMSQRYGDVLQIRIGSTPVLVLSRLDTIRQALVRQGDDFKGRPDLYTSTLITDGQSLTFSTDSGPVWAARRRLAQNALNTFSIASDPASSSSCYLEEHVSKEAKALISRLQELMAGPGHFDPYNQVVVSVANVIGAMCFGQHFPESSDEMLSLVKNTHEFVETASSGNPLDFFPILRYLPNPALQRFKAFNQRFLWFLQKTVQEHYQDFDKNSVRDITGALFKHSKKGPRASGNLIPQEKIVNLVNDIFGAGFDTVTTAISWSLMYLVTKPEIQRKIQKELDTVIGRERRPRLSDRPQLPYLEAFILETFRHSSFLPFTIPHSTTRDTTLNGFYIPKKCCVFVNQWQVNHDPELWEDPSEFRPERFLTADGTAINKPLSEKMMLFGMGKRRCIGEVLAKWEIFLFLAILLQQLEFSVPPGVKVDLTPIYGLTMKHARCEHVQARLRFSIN
Procedure: as §1

[8] = tested on: cytochrome P450 sub-type C8/9; experiment: effect on cytochrome P450 activity; type: in vitro ADME; details: some inhibition at very high doses
Procedure: as §1

[9] = molecular target: cytochrome P450 sub-type 3A4 (Homo sapiens, UniProt P08684); experiment: effect on cytochrome P450 activity; type: in vitro ADME
Procedure: as §1

[10] = molecular target: cytochrome P450 sub-type 2D6 (Homo sapiens, UniProt P10635); experiment: effect on cytochrome P450 activity; type: in vitro ADME; details: some inhibition at very high doses
Procedure: as §1

[11] = tested on: cytochrome P450 sub-type 2C18/19; experiment: effect on cytochrome P450 activity; type: in vitro ADME; details: some inhibition at very high doses
Procedure: as §1

[12] = molecular target: cytochrome P450 sub-type 2E1 (Homo sapiens, UniProt P05181); experiment: effect on cytochrome P450 activity; type: in vitro ADME
Procedure: as §1

cytochrome P450 sub-type 2D6, sequence (P10635 whole entry): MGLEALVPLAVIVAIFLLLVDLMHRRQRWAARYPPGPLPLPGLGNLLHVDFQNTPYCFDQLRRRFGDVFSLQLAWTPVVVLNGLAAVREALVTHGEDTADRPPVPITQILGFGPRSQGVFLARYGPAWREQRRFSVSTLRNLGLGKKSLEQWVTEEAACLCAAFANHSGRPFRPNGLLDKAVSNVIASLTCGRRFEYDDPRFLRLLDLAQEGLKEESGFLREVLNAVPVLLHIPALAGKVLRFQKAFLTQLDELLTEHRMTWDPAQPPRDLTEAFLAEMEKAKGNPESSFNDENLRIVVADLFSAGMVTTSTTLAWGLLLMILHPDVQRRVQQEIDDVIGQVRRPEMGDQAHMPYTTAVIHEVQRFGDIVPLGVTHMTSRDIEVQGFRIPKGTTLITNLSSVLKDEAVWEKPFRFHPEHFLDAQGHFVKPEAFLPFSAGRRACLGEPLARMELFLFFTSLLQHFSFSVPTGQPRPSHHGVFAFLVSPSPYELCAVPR
cytochrome P450 sub-type 2E1, sequence (P05181 whole entry): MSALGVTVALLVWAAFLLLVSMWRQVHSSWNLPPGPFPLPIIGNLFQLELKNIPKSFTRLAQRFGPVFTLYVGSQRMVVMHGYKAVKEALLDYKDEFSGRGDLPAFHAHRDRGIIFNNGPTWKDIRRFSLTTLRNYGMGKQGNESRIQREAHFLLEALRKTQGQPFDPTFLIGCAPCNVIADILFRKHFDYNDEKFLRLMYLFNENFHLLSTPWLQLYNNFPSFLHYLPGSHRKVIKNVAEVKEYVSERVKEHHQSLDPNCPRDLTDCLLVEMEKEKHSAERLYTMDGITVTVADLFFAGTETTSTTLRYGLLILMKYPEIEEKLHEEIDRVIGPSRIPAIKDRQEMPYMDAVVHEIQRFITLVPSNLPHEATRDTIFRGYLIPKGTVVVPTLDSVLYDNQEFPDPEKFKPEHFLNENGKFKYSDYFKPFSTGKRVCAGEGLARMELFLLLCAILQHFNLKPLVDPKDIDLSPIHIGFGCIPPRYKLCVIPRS
cytochrome P450 sub-type 3A4, sequence (P08684 whole entry): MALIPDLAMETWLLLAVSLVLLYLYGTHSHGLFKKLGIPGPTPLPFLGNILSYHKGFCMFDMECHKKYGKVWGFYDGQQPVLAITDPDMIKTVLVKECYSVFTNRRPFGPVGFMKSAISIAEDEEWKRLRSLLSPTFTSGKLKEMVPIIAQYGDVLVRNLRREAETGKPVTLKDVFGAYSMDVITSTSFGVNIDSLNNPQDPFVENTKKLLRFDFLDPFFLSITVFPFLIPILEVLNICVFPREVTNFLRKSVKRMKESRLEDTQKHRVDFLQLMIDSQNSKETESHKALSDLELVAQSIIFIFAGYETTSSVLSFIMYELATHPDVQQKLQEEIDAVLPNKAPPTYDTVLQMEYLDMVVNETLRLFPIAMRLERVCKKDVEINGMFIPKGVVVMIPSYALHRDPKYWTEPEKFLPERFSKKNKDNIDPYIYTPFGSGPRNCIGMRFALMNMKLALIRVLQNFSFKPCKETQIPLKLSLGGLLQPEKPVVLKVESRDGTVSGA

COC(=O)[C@@H](c1ccccc1)[C@@H]1CCCCN1 [l-MPH, l-threo-Methylphenidate]
systemic availability following oral dosing [1]: very little l-MPH enters the circulation or becomes available to the brain | liver damage as assessed by increased plasma level of alanine aminotransferase and microscopic examination for hepatic necrosis [2]: not to be linked with liver damage | pharmacological action in the treatment of ADHD [3]: no action on the part of the l-enantiomer (l-MPH) has been detected | detection in the brain [4]: detected in the brain | SLEEP DURATION % change from control ([5]; 0.5 mg/kg s.c. −30 min): +3% | NUMBER OF RATS SLEEPING ([5]; 0.5 mg/kg s.c. −30 min): 9 | SLEEP DURATION mean ± s.e.m. ([5]; 0.5 mg/kg s.c. −30 min): 63.8 ± 18.5 NS min | SLEEP DURATION % change from control ([5]; 2 mg/kg s.c. −30 min): −85% | NUMBER OF RATS SLEEPING ([5]; 2 mg/kg s.c. −30 min): 4 + | SLEEP DURATION mean ± s.e.m. ([5]; 2 mg/kg s.c. −30 min): 9.5 ± 6.4** min | SLEEP DURATION % change from control ([5]; 4 mg/kg s.c. −30 min): −93% | NUMBER OF RATS SLEEPING ([5]; 4 mg/kg s.c. −30 min): 6 | SLEEP DURATION mean ± s.e.m. ([5]; 4 mg/kg s.c. −30 min): 4.3 ± 2.3*** min | SLEEP DURATION % change from control ([5]; 8 mg/kg s.c. −30 min): −79% | NUMBER OF RATS SLEEPING ([5]; 8 mg/kg s.c. −30 min): 1 +++ | SLEEP DURATION mean ± s.e.m. ([5]; 8 mg/kg s.c. −30 min): 13.3 ± 13.3 min | effect on barbital-induced sleep ([5]; rat, in vivo): antagonise barbital-induced sleep | Irwin test observation (cell wraps: No change) ([6]; 2 mg/kg s.c., rat): No | Mydriasis ([6]; 4 mg/kg s.c., at 30′): Mydriasis + | Excitation ([6]; 8 mg/kg s.c., at 30′): Excitation + | Excitation, number of rats showing the symptoms (X/N) ([6]; 8 mg/kg s.c., at 30′): (2/3) at 30′ | Mydriasis ([6]; 8 mg/kg s.c., at 30′): Mydriasis + | Stereotypies (sniffing), number of rats showing the symptoms (X/N) ([6]; 8 mg/kg s.c., at 30′): (1/3) at 30′ | Stereotypies (sniffing), number of rats showing the symptoms (X/N) ([6]; 16 mg/kg s.c., 30′ → 120′): (3/3) 30′ → 120′ | Excitation ([6]; 16 mg/kg s.c., 60′ → 120′): Excitation + | Excitation, number of rats showing the symptoms (X/N) ([6]; 16 mg/kg s.c., 60′ → 120′): (2/3) 60′ → 120′ | Stereotypies (head movements), number of rats showing the symptoms (X/N) ([6]; 16 mg/kg s.c., 60′ → 120′): (1/3) 60′ → 120′ | Mydriasis ([6]; 16 mg/kg s.c., at 30′): Mydriasis + at 30′ | Excitation ([6]; 32 mg/kg s.c., 15′ → 30′): Excitation + | Excitation, number of rats showing the symptoms (X/N) ([6]; 32 mg/kg s.c., 15′ → 30′): (3/3) 15′ → 30′ | ↑ Reactivity to touch, number of rats showing the symptoms (X/N) ([6]; 32 mg/kg s.c., 15′ → 30′): (3/3) 15′ → 30′ | Mydriasis ([6]; 32 mg/kg s.c., 15′ → 120′): (++ 15′ → | Stereotypies (sniffing), number of rats showing the symptoms (X/N) ([6]; 32 mg/kg s.c., 15′ → 120′): (3/3) | ↑ Fear, number of rats showing the symptoms (X/N) ([6]; 32 mg/kg s.c., 15′ → 120′): (3/3) | Hyperthermia ([6]; 32 mg/kg s.c., at 30′ and 120′): Hyperthermia + | Mydriasis ([6]; 32 mg/kg s.c., at 180′): (+ at 180′) | Irwin test observations at higher doses ([6]; 64, 128 and 256 mg/kg, s.c., rat): all rats exhibited further characteristics including sedation, fore-paw treading, stereotypes (head movements) and decreased muscle tone | signs of stimulation in the Irwin profile ([6]; at doses having anti-convulsant effects): Slight signs of stimulation were noted | sedation in the Irwin profile ([6]; at the doses used in the PTZ test): sedation was not noted | effect on activity of cytochrome P450 sub-type 1A2 [7]: little or no effect | concentration required to inhibit enzyme activity, cytochrome P450 sub-type C8/9 [8]: 100 µM | effect on activity of cytochrome P450 sub-type 3A4 [9]: little or no effect | concentration required to inhibit enzyme activity, cytochrome P450 sub-type 2D6 [10]: 100 µM | concentration required to inhibit enzyme activity, cytochrome P450 sub-type 2C18/19 [11]: 100 µM | effect on activity of cytochrome P450 sub-type 2E1 [12]: little or no effect

— patent US7384959B2, “Treatment of convulsive states” (priority 1999, dated 2008)
